Test results taken from patent publication US7964557B2, “Inhibition of wet type age related macular degeneration (AMD) by adiponectin or acrp 30” (University of Louisville Research Foundation, Inc., priority 2005, dated 2011).

B1: rAPN: mouse recombinant adiponectin polypeptide of about 30 kDa obtained from BioVision Research Products (protein, UniProt Q60994 18-247, looked up)
Adiponectin: EDDVTTTEELAPALVPPPKGTCAGWMAGIPGHPGHNGTPGRDGRDGTPGEKGEKGDAGLLGPKGETGDVGMTGAEGPRGFPGTPGRKGEPGEAAYVYRSAFSVGLETRVTVPNVPIRFTKIFYNQQNHYDGSTGKFYCNIPGLYYFSYHITVYMKDVKVSLFKKDKAVLFTYDQYQEKNVDQASGSVLLHLEVGDQVWLQVYGDGDHNGLYADNVNDSTFTGFLLYHDTN

Columns and labels:
laser-induced CNV = test: laser-induced mouse model of choroidal neovascularization (CNV), CNV size by confocal microscopy; type: in vivo, C57BL/6 mice; details: for reduction in CNV size compared to control: p<0.005; for neovascular complex in laser spots, confocal micrograph: compared to control; for reduction of CNV size compared to control mice: injected subretinally into the eye, 5 μg; for reduction of CNV size compared to control mice / decrease in CNV size compared to control mice: control PBS; for decrease in CNV size compared to control mice: day 7 after laser; for effect on CNV size compared among adiponectin peptides (words): mouse model of CNV, route not stated
Method: Animals (C57BL/6 mice) were divided into 3 groups. CNV was induced by laser photocoagulation in group 1 (n=5) with the krypton red laser (50 μm spot size; 0.05 s duration; 250 mW), as previously described (Bora et al. 2003 Proc. Natl. Acad. Sci. USA 100:2679-2685; Bora et al. 2005 J. Immunol. 174:491-497) and no APN was administered to these mice. Three laser spots were placed in each eye close to the optic nerve. In group 2 (n=5), the mice were treated, i.p., with 25 μg of rAPN, one day before laser photocoagulation and every day after laser treatment until day 6. Group 3 animals received subretinal injections on days 0, 1, and 3 in one eye, the other eye received PBS as control. All the experiments were repeated three times.
We injected 50 μg peptide NH2-LQVYGDGDHNGLYADNVN-COOH (SEQ ID NO: 1, synthesized at Peptide Biochemical Research Inc. Seattle, USA; dissolved in PBS) intraperitoneally (i.p.) to mice (n=5) as well as intravitreally (i-vit.). Six i.p. injections were given, one preceding laser treatment and five following the laser treatment. Control group was given sterile PBS. One group (n=5) was photocoagulated on day 0 and on day 1 a single 30 μg i-vit. injection was given. All the experiments were repeated three times. Mice were sacrificed following perfusion with FITC dextran on day 7 and eyes removed and fixed in formaldehyde. Choroidal-scleral flat mounts were prepared and processed for immunostaining. Laser confocal micrographs were used to measure the size of CNV by Image-Pro-Plus software (Media Cybernetics, Inc. Silver Spring, Md.).
Seven days after laser treatment, the eyes of all animals were perfused with 1 ml of PBS containing 50 mg/ml fluorescein-labeled dextran (FITC-dextran; average molecular mass, 2×10^6; Sigma-Aldrich) and the animals were sacrificed. The eyes were harvested and fixed in 10% phosphate-buffered formalin, and retinal pigment epithelium (RPE)-choroid-scleral flat mounts were prepared as previously described (Bora et al. 2003 supra; Bora et al. 2005 supra.). RPE-choroid-scleral flat mounts were stained for elastin using a mAb specific for elastin (1.0 mg/ml; 1/2000 dilution; Sigma-Aldrich) followed by a Cy3-labeled secondary Ab (1.0 mg/ml; 1/2000 dilution; Sigma-Aldrich). The incidence and the size of CNV were determined by confocal microscopy. The size of the CNV complex was graded by morphometric analysis of the images (MetaMorph Image Analysis software package; Universal Imaging) obtained from confocal microscopy.

VEGF = test: RT-PCR of VEGF mRNA in choroids of laser-treated mice; type: in vivo, C57BL/6 mice; details: APN administered vs laser-treated mice without APN; FIG. 5; listed as APN
Method: Ten laser spots were placed in each eye of C57BL/6 mice as described below. Animals from each group (n=10/each time point) were sacrificed at days 1, 3, 5, and 7 post-laser treatment, RPE-choroid-scleral tissues harvested from the enucleated eyes were pooled separately for each time point and without laser treatment (control), and total RNA was prepared using SV Total RNA Isolation kit (Promega, Madison, Wis.). Equal amounts of the total RNA (0.2 μg) were used to detect the mRNA levels of GAPDH, VEGF, β-FGF and APN by RT-PCR using the reagents purchased from Applied Biosystems. The sense and antisense oligonucleotide primers were synthesized at Integrated DNA Technologies, and PCR used 30 cycles. The negative controls consisted of omission of RNA or reverse transcriptase in the reaction mixture. PCR products were analyzed on a 2% agarose gel and were examined by using the Molecular Analyst/PC program (Bio-Rad). RT-PCR was conducted using the following primers: GAPDH (forward (F), 5′-[…]-3′, SEQ ID NO; 5; reverse (R), 5′-[…]-3′, SEQ ID NO: 6); VEGF (F, 5′-GCGGGCTGCCTCGCAGTC-3′, SEQ ID NO: 7; R, 5′-[…]-3′, SEQ ID NO: 8); β-FGF (F, 5′-[…]-3′, SEQ ID NO: 9; R, 5′-[…]-3′, SEQ ID NO: 10); TGF-β2 (F, 5′-[…]-3′, SEQ ID NO: 11; R, 5′-[…]-3′, SEQ ID NO: 12); APN (F, 5′-[…]-3′, SEQ ID NO: 13; R, 5′-[…]-3′, SEQ ID NO: 14)

[1] = intraperitoneal (i.p.) injection, 25 μg rAPN or 50 μg 18 mer peptide

Molecule	reduction in CNV size compared to control (laser-induced CNV; i-vit injection, single dose a day after laser, FIG. 7B)	reduction in CNV size compared to control (laser-induced CNV; i.p. injection, 50 μg/mouse, six daily injections, FIG. 7A)	neovascular complex in laser spots, confocal micrograph (laser-induced CNV; i.p. injection)	reduction of CNV size compared to control mice (laser-induced CNV) [%]	decrease in CNV size compared to control mice (laser-induced CNV; [1]) [%]	neovascular complex in laser spots, confocal micrograph (laser-induced CNV; intravitreal injection)	decrease in CNV size compared to control mice (laser-induced CNV; intravitreal injection)	effect on CNV size compared among adiponectin peptides (words) (laser-induced CNV)	effect on CNV size compared among adiponectin peptides (words) (laser-induced CNV; listed as 18 mer synthetic peptide)	decrease in CNV size compared to control mice (laser-induced CNV; intravitreal injection, listed as APN) [%]	VEGF expression in the choroids of laser-treated mice (VEGF)
NH2-LQVYGDGDHNGLYADNVN-COOH (H-LQVYGDGDHNGLYADNVN-OH) [18 mer peptide, 18 mer synthetic peptide, amino acid residues 216-233 of mouse adiponectin globular domain]	significant reduction	significant reduction	significantly inhibited	70	~80	significantly inhibited	about 70%	as effective as the intact adiponectin protein	reduced the size of CNV similarly	–	–
B1	–	–	significantly inhibited	70	80	–	about 70%	reduced the size of CNV similarly	–	70	inhibited VEGF expression
